Data reported in PubChem BioAssay AID1963847 (Molecular Pharmacology Branch, DTP, NCI, 2024).

Tested on: 415267-285-R-J2-PDC complex spheroid viability
Test: Anticancer human tumor 415267-285-R-J2-PDC patient-derived breast carcinoma cell line growth inhibition [POLQ]
Settings: for IC50: curve of first compound; for viability, T/C: stronger effect = lower value
Procedure, shortened: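 Growth inhibition in 3D: complex spheroids (tumor PDC, HUVEC, MSC) treated with POLQ inhibitor combinations; where Cmax unknown, highest tested concentration 10 microM, except SN-38 at 1 microM.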

[1] = second compound 0.0316 µM, first compound 0.00316 µM
[2] = second compound 0.0316 µM, first compound 0.01 µM
[3] = second compound 0.0316 µM, first compound 0.0316 µM
[4] = second compound 0.0316 µM, first compound 0.1 µM
[5] = second compound 0.1 µM, first compound 0.00316 µM
[6] = second compound 0.1 µM, first compound 0.01 µM
[7] = second compound 0.1 µM, first compound 0.0316 µM
[8] = second compound 0.1 µM, first compound 0.1 µM
[9] = second compound 0.316 µM, first compound 0.00316 µM
[10] = second compound 0.316 µM, first compound 0.01 µM
[11] = second compound 0.316 µM, first compound 0.0316 µM
[12] = second compound 0.316 µM, first compound 0.1 µM
[13] = second compound 1 µM, first compound 0.00316 µM
[14] = second compound 1 µM, first compound 0.01 µM
[15] = second compound 1 µM, first compound 0.0316 µM
[16] = second compound 1 µM, first compound 0.1 µM
[17] = second compound 3.16 µM, first compound 0.00316 µM
[18] = second compound 3.16 µM, first compound 0.01 µM
[19] = second compound 3.16 µM, first compound 0.0316 µM
[20] = second compound 3.16 µM, first compound 0.1 µM
[21] = second compound 10 µM, first compound 0.00316 µM
[22] = second compound 10 µM, first compound 0.01 µM
[23] = second compound 10 µM, first compound 0.0316 µM
[24] = second compound 10 µM, first compound 0.1 µM
[25] = second compound 0.0316 µM, first compound 0.316 µM
[26] = second compound 0.0316 µM, first compound 1 µM
[27] = second compound 0.1 µM, first compound 0.316 µM
[28] = second compound 0.1 µM, first compound 1 µM
[29] = second compound 0.316 µM, first compound 0.316 µM
[30] = second compound 0.316 µM, first compound 1 µM
[31] = second compound 1 µM, first compound 0.316 µM
[32] = second compound 1 µM, first compound 1 µM
[33] = second compound 3.16 µM, first compound 0.316 µM
[34] = second compound 3.16 µM, first compound 1 µM
[35] = second compound 10 µM, first compound 0.316 µM
[36] = second compound 10 µM, first compound 1 µM
[37] = second compound 0.0316 µM, first compound 3.16 µM
[38] = second compound 0.0316 µM, first compound 10 µM
[39] = second compound 0.1 µM, first compound 3.16 µM
[40] = second compound 0.1 µM, first compound 10 µM
[41] = second compound 0.316 µM, first compound 3.16 µM
[42] = second compound 0.316 µM, first compound 10 µM
[43] = second compound 1 µM, first compound 3.16 µM
[44] = second compound 1 µM, first compound 10 µM
[45] = second compound 3.16 µM, first compound 3.16 µM
[46] = second compound 3.16 µM, first compound 10 µM
[47] = second compound 10 µM, first compound 3.16 µM
[48] = second compound 10 µM, first compound 10 µM
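Also: spheroids exposed to compounds for one week before readout.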
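For viability, T/C in this document: luminescence used as stand-in measure of viable cells; 100% = DMSO vehicle control viability.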

## CC[C@@]1(O)C(=O)OCc2c1cc1n(c2=O)Cc2cc3c(CN(C)C)c(O)ccc3nc2-1 + Cc1cccc(N(C)C(=O)C2C(O)CCN2c2nc(C)cc(C(F)(F)F)c2C#N)c1
Second compound 0.0316 µM
  IC50: 19.8 nM
Second compound 0.1 µM
  IC50: 18.8 nM
Second compound 0.316 µM
  IC50: 20.6 nM
Second compound 1 µM
  IC50: 18.9 nM
Second compound 3.16 µM
  IC50: 18.5 nM
Second compound 10 µM
  IC50: 18.2 nM
Second compound 0.0316 µM, first compound 0.000316 µM
  viability, T/C: 90.7%
Second compound 0.0316 µM, first compound 0.001 µM
  viability, T/C: 102%
[1]
  viability, T/C: 103%
[2]
  viability, T/C: 90.9%
[3]
  viability, T/C: 22%
[4]
  viability, T/C: 7.7%
Second compound 0.1 µM, first compound 0.000316 µM
  viability, T/C: 96.9%
Second compound 0.1 µM, first compound 0.001 µM
  viability, T/C: 96.9%
[5]
  viability, T/C: 101%
[6]
  viability, T/C: 86.5%
[7]
  viability, T/C: 19.9%
[8]
  viability, T/C: 7.92%
Second compound 0.316 µM, first compound 0.000316 µM
  viability, T/C: 102%
Second compound 0.316 µM, first compound 0.001 µM
  viability, T/C: 98%
[9]
  viability, T/C: 102%
[10]
  viability, T/C: 104%
[11]
  viability, T/C: 19.2%
[12]
  viability, T/C: 9.41%
Second compound 1 µM, first compound 0.000316 µM
  viability, T/C: 101%
Second compound 1 µM, first compound 0.001 µM
  viability, T/C: 96.4%
[13]
  viability, T/C: 107%
[14]
  viability, T/C: 89.5%
[15]
  viability, T/C: 18.1%
[16]
  viability, T/C: 7.15%
Second compound 3.16 µM, first compound 0.000316 µM
  viability, T/C: 98.5%
Second compound 3.16 µM, first compound 0.001 µM
  viability, T/C: 102%
[17]
  viability, T/C: 92%
[18]
  viability, T/C: 91.7%
[19]
  viability, T/C: 13.8%
[20]
  viability, T/C: 8.04%
Second compound 10 µM, first compound 0.000316 µM
  viability, T/C: 108%
Second compound 10 µM, first compound 0.001 µM
  viability, T/C: 96.2%
[21]
  viability, T/C: 104%
[22]
  viability, T/C: 85.6%
[23]
  viability, T/C: 17.1%
[24]
  viability, T/C: 9.1%

## CCc1c2c(nc3ccc(O)cc13)-c1cc3c(c(=O)n1C2)COC(=O)[C@]3(O)CC + Cc1cccc(N(C)C(=O)C2C(O)CCN2c2nc(C)cc(C(F)(F)F)c2C#N)c1
Second compound 0.0316 µM
  IC50: < 3.16 nM
Second compound 0.1 µM
  IC50: < 3.16 nM
Second compound 0.316 µM
  IC50: < 3.16 nM
Second compound 1 µM
  IC50: < 3.16 nM
Second compound 3.16 µM
  IC50: < 3.16 nM
Second compound 10 µM
  IC50: < 3.16 nM
[1]
  viability, T/C: 27.1%
[2]
  viability, T/C: 11.3%
[3]
  viability, T/C: 5.73%
[4]
  viability, T/C: 3.97%
[25]
  viability, T/C: 3.18%
[26]
  viability, T/C: 1.44%
[5]
  viability, T/C: 26.4%
[6]
  viability, T/C: 10%
[7]
  viability, T/C: 5.47%
[8]
  viability, T/C: 4.21%
[27]
  viability, T/C: 3.59%
[28]
  viability, T/C: 1.35%
[9]
  viability, T/C: 32.5%
[10]
  viability, T/C: 11.6%
[11]
  viability, T/C: 5.27%
[12]
  viability, T/C: 3.49%
[29]
  viability, T/C: 3.51%
[30]
  viability, T/C: 1.32%
[13]
  viability, T/C: 34%
[14]
  viability, T/C: 9.41%
[15]
  viability, T/C: 6.43%
[16]
  viability, T/C: 4.75%
[31]
  viability, T/C: 3.42%
[32]
  viability, T/C: 0.75%
[17]
  viability, T/C: 34.7%
[18]
  viability, T/C: 8.16%
[19]
  viability, T/C: 6.7%
[20]
  viability, T/C: 4.46%
[33]
  viability, T/C: 4.26%
[34]
  viability, T/C: 1.28%
[21]
  viability, T/C: 29.4%
[22]
  viability, T/C: 10.3%
[23]
  viability, T/C: 6.91%
[24]
  viability, T/C: 3.72%
[35]
  viability, T/C: 3.54%
[36]
  viability, T/C: 1.1%

## COc1cc(C2c3cc4c(cc3C(OC3OC5COC(C)OC5C(O)C3O)C3COC(=O)C23)OCO4)cc(OC)c1O (stereo not drawn) + Cc1cccc(N(C)C(=O)C2C(O)CCN2c2nc(C)cc(C(F)(F)F)c2C#N)c1
Second compound 0.0316 µM
  IC50: 136 nM
Second compound 0.1 µM
  IC50: 126 nM
Second compound 0.316 µM
  IC50: 107 nM
Second compound 1 µM
  IC50: 125 nM
Second compound 3.16 µM
  IC50: 103 nM
Second compound 10 µM
  IC50: 89.9 nM
[3]
  viability, T/C: 96%
[4]
  viability, T/C: 64.5%
[25]
  viability, T/C: 10.3%
[26]
  viability, T/C: 6.03%
[37]
  viability, T/C: 5.96%
[38]
  viability, T/C: 6.13%
[7]
  viability, T/C: 83.3%
[8]
  viability, T/C: 58.7%
[27]
  viability, T/C: 15%
[28]
  viability, T/C: 5.93%
[39]
  viability, T/C: 6.54%
[40]
  viability, T/C: 7.34%
[11]
  viability, T/C: 96.4%
[12]
  viability, T/C: 52.3%
[29]
  viability, T/C: 14.2%
[30]
  viability, T/C: 7.66%
[41]
  viability, T/C: 5.87%
[42]
  viability, T/C: 5.74%
[15]
  viability, T/C: 91.3%
[16]
  viability, T/C: 58.8%
[31]
  viability, T/C: 13.1%
[32]
  viability, T/C: 6.58%
[43]
  viability, T/C: 4.68%
[44]
  viability, T/C: 6.56%
[19]
  viability, T/C: 93.7%
[20]
  viability, T/C: 50.9%
[33]
  viability, T/C: 10.1%
[34]
  viability, T/C: 7.37%
[45]
  viability, T/C: 5.2%
[46]
  viability, T/C: 6.34%
[23]
  viability, T/C: 79.7%
[24]
  viability, T/C: 47%
[35]
  viability, T/C: 11%
[36]
  viability, T/C: 7.78%
[47]
  viability, T/C: 5.72%
[48]
  viability, T/C: 5.96%

## O=C(c1cc(Cc2n[nH]c(=O)c3ccccc23)ccc1F)N1CCN(C(=O)C2CC2)CC1 + Cc1cccc(N(C)C(=O)C2C(O)CCN2c2nc(C)cc(C(F)(F)F)c2C#N)c1
Second compound 0.0316 µM
  IC50: > 10000 nM
Second compound 0.1 µM
  IC50: > 10000 nM
Second compound 0.316 µM
  IC50: > 10000 nM
Second compound 1 µM
  IC50: > 10000 nM
Second compound 3.16 µM
  IC50: > 10000 nM
Second compound 10 µM
  IC50: > 10000 nM
[3]
  viability, T/C: 87.6%
[4]
  viability, T/C: 101%
[25]
  viability, T/C: 102%
[26]
  viability, T/C: 99.7%
[37]
  viability, T/C: 103%
[38]
  viability, T/C: 82.9%
[7]
  viability, T/C: 94%
[8]
  viability, T/C: 96.2%
[27]
  viability, T/C: 96.5%
[28]
  viability, T/C: 106%
[39]
  viability, T/C: 91.2%
[40]
  viability, T/C: 78.3%
[11]
  viability, T/C: 95.3%
[12]
  viability, T/C: 98.3%
[29]
  viability, T/C: 99.4%
[30]
  viability, T/C: 111%
[41]
  viability, T/C: 95.8%
[42]
  viability, T/C: 86.6%
[15]
  viability, T/C: 104%
[16]
  viability, T/C: 95.1%
[31]
  viability, T/C: 95.8%
[32]
  viability, T/C: 98.2%
[43]
  viability, T/C: 92.9%
[44]
  viability, T/C: 76.8%
[19]
  viability, T/C: 99.3%
[20]
  viability, T/C: 98.6%
[33]
  viability, T/C: 88.5%
[34]
  viability, T/C: 95.9%
[45]
  viability, T/C: 87.7%
[46]
  viability, T/C: 72.9%
[23]
  viability, T/C: 100%
[24]
  viability, T/C: 85.1%
[35]
  viability, T/C: 87.7%
[36]
  viability, T/C: 98%
[47]
  viability, T/C: 90%
[48]
  viability, T/C: 68%
